Reference: US6610297B1, “Peptide immunogens for vaccination against and treatment of allergy” (Novartis AG, priority 1996, dated 2003)
Where no end group is shown, it is not given here.

What was measured:
BSW17 [1] = assay: Recognition of phage-displayed peptides by BSW17 (phage display library screening); format: binding; parameters: key: + + +: +(++), +/− = intensity of recognition by BSW 17; +(++), +/− = intensity of recognition by BSW 17; +(++), +/− = intensity of recognition by BSW 17; + /−: +(++), +/− = intensity of recognition by BSW 17; settings: phage-displayed circular peptides, group A
Experimental: Bacteriophage particles specifically recognized by BSW17 are identified by biopanning of phage libraries displaying linear or circular random peptides from 6 to 15 amino acid residues in length fused to phage peptides pIII and pVIII, respectively. For amplification of phage libraries, 2 ml of a liquid culture of E. coli XL-I blue grown in SB medium to OD600=1.0 are incubated with 10^10 phages for 15 minutes at room temperature. 10 ml of SB medium containing […] of tetracycline and 20 μg/ml of carbenicillin are added and 10 μl, 1 μl and 0.1 μl, respectively, are plated on LB plates containing 100 μg/ml of carbenicillin. The culture is incubated at 37° with vigorous shaking for one hour, then 100 ml of SB containing 10 μg/ml of tetracycline and 50 μg/ml of carbenicillin are added and incubation is continued for one hour. 10^12 cfu of VCS M13 helper phage are added. After 2 hours with vigorous shaking at 37°. kanamycin is added to a final concentration of 70 μg/ml and incubation continued overnight. After centrifugation at 4000 g and 4° for 20 minutes, supernatants are mixed with 38 ml of an ice-cold sterile filtered solution of 12% NaCl and 16% PEG 8000, cooled on ice for 30 minutes and centrifuged for 30 minutes at 10000 g at 4°. The phage pellet is solubilized in 2 ml of TBS containing 1.5% casein and stored at 4°. For biopanning, COSTAR® RIA plates (Costar 3690) are coated over-night at 4° with 20 μg/ml of BSW17 in 0.1 M carbonate buffer, pH 9.6, and thereafter blocked with TBS containing 1.5% casein. 2×10^11 cfu of phages are added and incubated at 37° for 2 hours, then washed ten times with PBS/0.1% Tween 20. The wells are rinsed with water and the bound phages eluted with a total of 200 μl of 0.1 M HCl, pH 2.2 for 10 minutes. Eluted phages are neutralized with 2 M Tris base and amplified as described above.
For the selection of positive clones 50 μl of a E. coli XL-I blue liquid culture grown in SB-medium to OD600=1.0 are incubated with 1 μl of a 10^−8 dilution of amplified phages after the 3rd round of panning for 15 minutes at room temperature, then plated on LB plates containing 100 μg/ml of carbenicillin and grown overnight. Colonies are randomly picked and plated on LB plates containing 100 μg/ml of carbenicillin. After 4 hours at 37°, nitrocellulose filters soaked with 10 mM of IPTG are put on top and incubation continued overnight at 32°. Filters are removed and incubated at 37° for 30 minutes in a CHCl3-atmosphere. […]
The nucleotide sequence of the DNA encoding these peptides was determined. […]

BSW17 [2] = assay: ELISA: binding of mimotope-displaying phage particles to coated BSW17; settings: FIG. 5; phage titer 10^9 cfu/ml; 10 μg coated antibody
Experimental: (§1) 10 μg of BSW17 and various monoclonal antibodies are coated to the wells of COSTAR® plates following standard ELISA procedures. After blocking with BSA, the wells are incubated with 100 μl of standard ELISA incubation buffer containing bacteriophage particles obtained from phage-infected bacterial culture supernatants with a phage titer of 10^9 cfu/ml. After washing, the plates are incubated with 5 μg of horseradish peroxidase (HRP)-coupled anti-M13 antiserum (Pharmacia, Uppsala, Sweden) in incubation buffer. All incubations are carried out at room temperature for 1 hour. After final washing, phage particles bound to the coated antibodies are visualized via the bound HRP-anti M13 serum by chromogenic substrate development following standard ELISA procedure. […] As negative non-antibody control, recombinant FcεRI α-chain and as positive control, wells coated with polyclonal anti-M13 antiserum are included.

[3] = system: 8E7, 3G9, 5H10 (monoclonal anti-Cε3 antibodies) and 5H5/F8 (against human FcεRIα); assay: ELISA: binding of mimotope-displaying phage particles to other coated monoclonal antibodies; settings: FIG. 5; phage titer 10^9 cfu/ml; 10 μg coated antibody
Experimental: as §1

BSW17/IgE binding = assay: Competition RIA: binding of 125I-labelled IgE to BSW17 in the presence of phage particles; parameters: species or system human; settings: FIG. 6; for Inhibition of labelled IgE binding to BSW17, equal to non-labelled IgE concentration: 10^11 cfu/ml of phage particles, estimated from standard inhibition curve
Experimental: Bacterial cells are grown in SB containing 10 μg/ml of tetracycline and 50 μg/ml of carbenicillin to OD600=0.4, then VCS M13 helper phage is added and incubation continued for 2 hours at 37°. Then kanamycin is added to a final concentration of 70 μg/ml and incubation continued overnight. Phage particles are precipitated with polyethyleneglycol. Soft RIA plates are coated with 20 μg/ml of BSW17 in 0.1 M carbonate buffer pH 9.6 and then blocked with TBS containing 1.5% casein. Human IgE is ^125I-labelled by the chloramine-T method and 100000 cpm per well are used for binding to BSW17 coated to the RIA plates in the presence of increasing concentrations of non-labelled IgE (standard curve) or phage particles, respectively. All experiments are performed at room temperature and plates are washed 3 times with 0.9% NaCl+0.05% Tween 20, cut in pieces and each well was measured in a γ-counter for 1 minute.
Closed circles show a standard inhibition curve by unlabelled IgE to allow an estimation of inhibition of labeled IgE binding in the presence of 10^11 cfu/ml of phage particles. The inhibition achieved with the phage clones is equal to non-labelled IgE concentrations of 1 μg/ml and 1.7 μg/ml, respectively.

human IgE = assay: Anti-IgE response in rabbits immunized with BSW17 mimotope displaying phage (dot ELISA of serum); format: in vivo; settings: rabbit serum 1:200 after third boost
human IgE, sequence (P01854 1-428 isoform P01854-1): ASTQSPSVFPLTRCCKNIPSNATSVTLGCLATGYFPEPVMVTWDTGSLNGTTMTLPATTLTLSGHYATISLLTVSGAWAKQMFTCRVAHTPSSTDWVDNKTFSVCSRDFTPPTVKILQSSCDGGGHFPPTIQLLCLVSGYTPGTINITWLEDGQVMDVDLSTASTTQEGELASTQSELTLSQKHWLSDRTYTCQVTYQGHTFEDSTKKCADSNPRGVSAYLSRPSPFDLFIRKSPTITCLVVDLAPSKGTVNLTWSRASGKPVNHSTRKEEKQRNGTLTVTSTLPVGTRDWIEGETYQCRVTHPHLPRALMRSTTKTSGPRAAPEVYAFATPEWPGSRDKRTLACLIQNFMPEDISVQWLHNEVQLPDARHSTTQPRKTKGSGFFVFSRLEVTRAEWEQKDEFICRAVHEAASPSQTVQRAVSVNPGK
Experimental: To test the feasibility of a BSW17 mimotope-based vaccine approach, rabbits are immunized with phage particles displaying BSW17 mimotope peptides and helper phage VCS M13 as control, respectively. 10^12 cfu of freshly prepared phage particles are dialyzed against PBS at 4°. 1 ml is emulsified with complete Freund's adjuvant for the first immunization, or with 1 ml incomplete Freund's adjuvant for boosting. Immunization is repeated subcutaneously every 14 days. After the third boost, 12 ml of blood are taken, clotted for 4 hours at room temperature in glass vials and centrifuged for 10 minutes at 2000 g. The supernatants are tested for the presence of anti-human IgE antibodies by ELISA. Human IgE from three different individuals (SUS11-IgE; PS-IgE; WT-IgE) is diluted in PBS at a concentration of 50 μg/ml and 1 μl aliquots are dotted onto nitrocellulose. Nitrocellulose is blocked in TBS containing 1.5% casein for 1 hour. Rabbit serum is diluted 1:200 in TBS containing 1.5% casein and incubated overnight. Washing is performed in TBS, TBS-0.05% Tween 20 and TBS for 10 minutes each. Developing goat anti-rabbit-HRP is 1:1.000 diluted in TBS containing 1.5% casein and incubated for 4 hours. Washing and staining is performed as described. […] However, in addition to a massive immune response to the bacteriophage pVIII coat protein, sera of rabbits immunized with BSW17 mimotope phages also contain strongly elevated levels of antibodies which specifically recognize human IgE: […]

BSW17/IgE interaction = assay: Competition ELISA: inhibition of BSW17-HRP/IgE interaction by sera of immunized rabbits; format: in vivo, human; settings: rabbit serum 1:50, BSW17-HRP 1:50000
BSW17/IgE interaction, sequence (P01854 1-428 isoform P01854-1): as above
Experimental: After washing, mAb BSW17 labeled with horseradish peroxidase (BSW17-HRP) is added in a 1:50000 dilution in TBS containing 1.5% casein for 4 hours. Subsequent washing and staining is performed as described.

BSW17 [4] = assay: ELISA: recognition of coated mimotope conjugates by BSW17; format: binding; settings: FIGS. 8a, 8b, 9a, 9b
Experimental: Microtiter plate wells are coated with 1 μg each of SDS236, SDS237 or free KLH and incubated with increasing concentrations of BSW17. Bound antibody is detected with goat anti-mouse IgG-HRP (gamIgG-HRP). The data shown represents means of duplicates minus background binding to uncoated (BSA-blocked) wells.
FIG. 8b summarizes ELISA data obtained with various BSW17 mimotope conjugates coupled to the carrier protein using several chemical coupling procedures. Microtiter plate wells are coated with 5 μg each of the mimotope conjugates, or free KLH, and incubated with 10 μg of BSW17. Bound antibody is detected with gamIgG-HRP. The data shown represents means of duplicates minus background binding to uncoated (BSA-blocked) wells. In contrast to free KLH, each BSW17 mimotope conjugate is found to be recognized by BSW17.
In FIGS. 9a and 9b it is shown that BSW17 mimotopes coupled to KLH or BSA are specifically recognized by BSW17 and not by the non-related monoclonal antibodies 3G9 (anti-human Cε3) and 5H5/F8 (anti-human RIα). Again, microtiter plate wells are coated with 5 μg each of the mimotope conjugates shown and incubated with 10 μg of the corresponding monoclonal antibody. Bound antibody is detected with gamIgG-HRP. The data shown represents means of duplicates minus background binding to uncoated (BSA-blocked) wells.

human IgE (human) = human IgE (human) (UniProt P01854); assay: cell-based or functional assay
human IgE (human), sequence (P01854 other isoform, or with tags, fused parts or gaps): as the sequence (P01854 1-428 isoform P01854-1) above

human IgM = human IgM (Homo sapiens, UniProt P01871); assay: Isotype specificity ELISA of sera of immunized rabbits: IgM; format: in vivo; settings: FIG. 12; serum 1:50
human IgM, sequence (P01871 1-433 limits assumed): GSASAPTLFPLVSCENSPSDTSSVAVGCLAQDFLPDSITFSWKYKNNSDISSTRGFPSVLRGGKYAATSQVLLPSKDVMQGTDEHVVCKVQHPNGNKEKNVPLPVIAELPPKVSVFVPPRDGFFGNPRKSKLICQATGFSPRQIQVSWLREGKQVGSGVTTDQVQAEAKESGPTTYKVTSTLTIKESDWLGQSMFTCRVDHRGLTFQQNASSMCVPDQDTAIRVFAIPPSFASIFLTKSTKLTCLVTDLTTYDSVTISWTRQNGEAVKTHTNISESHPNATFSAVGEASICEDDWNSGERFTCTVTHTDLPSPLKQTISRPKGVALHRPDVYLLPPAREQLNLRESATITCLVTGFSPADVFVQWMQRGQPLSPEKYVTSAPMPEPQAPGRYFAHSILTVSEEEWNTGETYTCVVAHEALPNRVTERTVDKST
human IgM, sequence (P01591 23-159 partner): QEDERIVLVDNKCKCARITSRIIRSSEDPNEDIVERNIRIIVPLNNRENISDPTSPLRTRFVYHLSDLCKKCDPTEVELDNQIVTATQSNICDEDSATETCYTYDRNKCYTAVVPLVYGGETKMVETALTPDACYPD
Experimental: The isotype specificity of the anti-human IgE immune response in the immunized rabbits is monitored by ELISA: microtiter plate wells are each coated with 3 μg of human IgE (SUS-11), IgA, IgG, and IgM, respectively, and incubated with 100 μl of serum samples, diluted 1:50 with ELISA incubation buffer. Rabbit antibodies bound by the immobilized human antibodies are detected by incubation with goat garIgG-HRP. The measured OD405 values are corrected by the read-out obtained with 1:50 diluted pre-immune serum of each corresponding rabbit, diluted 1:50. The data given in FIG. 12 represents mean values of duplicate measurements.

## CRRHNYGFWVC (cysteine pairing not given here) [PhBSW.6-9]
BSW17 [1]
  intensity of recognition by BSW 17: ++
BSW17 [2]
  Binding of phage particles to BSW17: very specifically bind to BSW17
[3]
  Binding of phage particles to other antibodies (8E7, 3G9, 5H10, 5H5/F8): to no other antibodies
BSW17/IgE binding
  Inhibition of the binding of BSW17 to IgE (in words): inhibit the binding of BSW17 to IgE
  Inhibition of labelled IgE binding to BSW17, equal to non-labelled IgE concentration: 1 µg/mL
Human IgE
  Recognition of IgE (relative OD) PS-IgE: 8.0 ± 0.6 relative OD
  Recognition of IgE (relative OD) SUS11-IgE: 5.0 ± 0.2 relative OD
  Recognition of IgE (relative OD) WT-IgE: 21.0 ± 1.0 relative OD
BSW17/IgE interaction
  Recognition of different IgE (% inhibition) PS-IgE: 63%
  Recognition of different IgE (% inhibition) SUS11-IgE: 34%
  Recognition of different IgE (% inhibition) WT-IgE: 65%
  Recognition of different IgE (% inhibition) Zavasal-IgE: 51%

## linear KTKGSGFFVF-KLH [SDS237]
BSW17 [4]
  Recognition of conjugate by BSW17: recognized by BSW17 in a dose-dependent manner

## keyhole limpet hemocyanin [KLH]
BSW17 [4]
  Recognition of conjugate by BSW17: no binding

## monoclonal antibody BSW17
Human IgE (human)
  Specific histamine release (%), A: during sensitization with IgE and BSW17; Experiment 1: 3.6%
  Specific histamine release (%), A: during sensitization with IgE and BSW17; Experiment 2: 3%
  Specific histamine release (%), A: during sensitization with IgE and BSW17; Experiment 3: 4.4%
  Specific histamine release (%), B: after triggering with Le27; cells sensitized with IgE and BSW17; Experiment 1: 3.1%
  Specific histamine release (%), B: after triggering with Le27; cells sensitized with IgE and BSW17; Experiment 2: 1.5%
  Specific histamine release (%), B: after triggering with Le27; cells sensitized with IgE and BSW17; Experiment 3: 0.9%

## cyclic GEFCINHRGYWVCGDPA-KLH [SDS236]
BSW17 [4]
  Recognition of conjugate by BSW17: recognized by BSW17 in a dose-dependent manner

## CTRLHTGYWVC (cysteine pairing not given here) [Seq.id.no. 20]
BSW17 [1]
  intensity of recognition by BSW 17: +

## cyclic GEFCRRHNYGFWVCGDPA-KLH [SDS214]
Human IgM
  Recognition of human IgM by serum of immunized rabbit: partial recognition of human IgM

## CINHRGYWVC (cysteine pairing not given here) [PhBSW.29-8]
BSW17 [1]
  intensity of recognition by BSW 17: + + +
BSW17 [2]
  Binding of phage particles to BSW17: very specifically bind to BSW17
[3]
  Binding of phage particles to other antibodies (8E7, 3G9, 5H10, 5H5/F8): to no other antibodies
BSW17/IgE binding
  Inhibition of the binding of BSW17 to IgE (in words): inhibit the binding of BSW17 to IgE
  Inhibition of labelled IgE binding to BSW17, equal to non-labelled IgE concentration: 1.7 µg/mL
Human IgE
  Recognition of IgE (relative OD) PS-IgE: 9.0 ± 0.4 relative OD
  Recognition of IgE (relative OD) SUS11-IgE: 16.5 ± 0.7 relative OD
  Recognition of IgE (relative OD) WT-IgE: 25.0 ± 1.0 relative OD
BSW17/IgE interaction
  Recognition of different IgE (% inhibition) PS-IgE: 48%
  Recognition of different IgE (% inhibition) SUS11-IgE: 52%
  Recognition of different IgE (% inhibition) WT-IgE: 65%
  Recognition of different IgE (% inhibition) Zavasal-IgE: 47%

## Cys Thr Leu Ser Val Phe Gly Tyr Trp Val Cys (CTLSVFGYWVC; cysteine pairing not given here; also: circular) [Seq.id.no. 21]
BSW17 [1]
  intensity of recognition by BSW 17: + /−
